{"source": "a melting point compilation (Tetko et al.; mined from patent text by program, amines drawn as free bases though some values may be those of a salt)", "data": [{"units": {"melting point": "°C"}, "values": [{"smiles": "Nc1nc2ccccc2c2c1nc(-c1ccccc1)n2CCCCNS(=O)(=O)c1ccc(F)cc1", "melting point": "214 to 216"}, {"smiles": "CC(=O)Oc1c(C)c(C)c(O)c(C(C)=NOCCOc2ccc(CC3SC(=O)NC3=O)cc2)c1C", "note": "(centres undefined)", "melting point": "60 to 75"}, {"smiles": "CCNC(=O)Nc1cc(C(C)(C)C)c2c(c1)C(C)(C)CO2", "melting point": "197 to 198"}, {"smiles": "CC12CCC3C(CCC4CC(=O)CCC43CO[Si](C)(C)C(C)(C)C)C1CCC2=O", "note": "(centres undefined)", "melting point": "130 to 132"}, {"smiles": "CCn1nc(OC2COCCC2=O)c(-c2ccc(F)cc2)c1-c1ccc(S(C)(=O)=O)cc1", "note": "(centres undefined)", "melting point": "181 to 182"}, {"smiles": "COc1ccc2[nH]cc(CC(=O)N3CCN(c4ccc(NC(=N)c5cccs5)cc4)CC3)c2c1", "melting point": "221 to 222"}, {"smiles": "COc1ccc(N2CCN(CC[C@H]3CC[C@H](NC(N)=O)CC3)CC2)c(Cl)c1Cl", "melting point": "195 to 198"}, {"smiles": "O=C(NC1CCC(c2cc(Nc3cccc(C(F)(F)F)c3)n[nH]2)C1)C1CCCCC1", "note": "(centres undefined)", "melting point": 163}, {"smiles": "CC1C(CCc2ccccc2)SC2=CC=NC3=CC=CC(c4ccccc4)C321", "note": "(centres undefined)", "melting point": 210}, {"smiles": "O=C(O)CN(CC(=O)O)c1cc(OCCCCCCCCCCCCOc2ccccc2)cc(OCCCCCCc2cccc(O)c2O)c1", "melting point": "129 to 131"}, {"smiles": "Nc1ccc(-n2ccn(-c3ccc(OC(F)(F)C(F)F)cc3)c2=O)cc1", "melting point": "150 to 151"}, {"smiles": "CC(COc1ccc(C(N)=O)c(O)c1)NCC(O)COc1ccc(NS(C)(=O)=O)cc1", "note": "(centres undefined)", "melting point": "147 to 150"}, {"smiles": "COc1ccc(C2(c3ccc(-c4ccc(F)cc4)s3)N=C(N)N(C)C2=O)cc1C", "note": "(centres undefined)", "melting point": 110}, {"smiles": "FC(F)Sc1nc2ncccc2s1", "melting point": "41 to 43"}, {"smiles": "CC(C)(C)OC(=O)NCCCCC/C=C/C(=O)O", "melting point": "76 to 78"}, {"smiles": "OCC1(O)CSC(=S)N1c1ccccn1", "note": "(centres undefined)", "melting point": "134 to 135"}, {"smiles": "CCc1cc(C(=O)O)c(C)o1", "melting point": "97 to 99"}, {"smiles": "COc1ccccc1N1CCN(C2CCN(c3csc4ccccc34)CC2)CC1", "melting point": "156 to 158"}, {"smiles": "Nc1ccc2ncc(C(=O)NCc3ccc(Cl)cc3)c(O)c2c1", "melting point": "> 225"}, {"smiles": "O=P(O)(O)CCCCCCCCC(F)(F)C(F)(F)C(F)(F)C(F)(F)F", "melting point": "87 to 89"}, {"smiles": "CS(=O)(=O)c1ccc(/C(=C2\\N=C(c3ccccc3)OC2=O)c2ccc(Cl)cc2)cc1", "melting point": 226}, {"smiles": "N#Cc1c(N2CCN(C(=O)c3cccs3)CC2)c2cccnc2n(CC(=O)c2ccccc2)c1=O", "melting point": 269}, {"smiles": "O=c1cc(-c2ccncc2)nc2n1CCC(c1ccncc1)N2", "note": "(centres undefined)", "melting point": "268 to 270"}, {"smiles": "CCCCCCCCCCCCCCCC(=O)C1=C(O)COC1=O", "melting point": "81 to 83"}, {"smiles": "COCCOc1ccc(/C=C/C(=O)NS(=O)(=O)c2ccc(C(F)(F)F)cc2)c(Oc2ncc(C(F)(F)F)cc2Cl)c1", "melting point": 186}, {"smiles": "CCOC(=O)CCN1C(=O)C(NC(=O)Nc2ccc(Cl)cc2)N=C(c2ccccc2)c2ccccc21", "note": "(centres undefined)", "melting point": "251 to 253"}, {"smiles": "CCC(C)OC(=O)C(S)(C#N)C1=NC(C)Cc2cc(OC)c(OC)cc21", "note": "(centres undefined)", "melting point": "113 to 114"}, {"smiles": "COc1ccc(Cl)cc1C(=O)NCCC1CCN(S(=O)(=O)NC(=S)NC2CCCCC2)CC1", "melting point": "146 to 148"}, {"smiles": "COc1ccccc(NC(=O)C2=C(O)c3ccccc3S(=O)(=O)N2C)c1=O", "melting point": "243 to 247"}, {"smiles": "CCSC1CC(=O)CC(SCC)C1(O)c1ccccc1", "note": "(centres undefined)", "melting point": "49 to 50"}, {"smiles": "CN1C(=O)c2ccccc2Nc2ccccc21", "melting point": "210 to 211"}, {"smiles": "CC(C)C(NC(=O)NCc1ccccc1)C(=O)NC(Cc1ccccc1)C(O)C(Cc1ccccc1)NC(=O)C(NC(=O)NCc1ccccc1)C(C)C", "note": "(centres undefined)", "melting point": 238}, {"smiles": "COC(=O)C#CC(=O)c1ccccc1C", "melting point": "43 to 45"}, {"smiles": "CCOC(=O)CSc1nnc(SCCCBr)s1", "melting point": "118 to 120"}, {"smiles": "CC(Oc1ccc([N+](=O)[O-])cc1)C(=O)OCCOC(=O)C(C)Oc1ccc([N+](=O)[O-])cc1", "note": "(centres undefined)", "melting point": "118 to 120"}, {"smiles": "CCCP(=O)(CCC)Cc1ccc(NC(=O)/C=C/c2cccc(-c3ccc(C)cc3)c2)cc1", "melting point": "225 to 227"}, {"smiles": "CC(=O)c1c(F)cc2c(=O)c(C(=O)O)cn3c2c1OCC3C", "note": "(centres undefined)", "melting point": "258 to 259"}, {"smiles": "COc1cc(Nc2nc3c(ccc4c3ncn4CCN3CCOCC3)cc2C#N)c(C)cc1Cl", "melting point": "246 to 248"}, {"smiles": "CC(=O)NC(CCCCCCCCCCCCO)(COC(C)=O)COC(C)=O", "melting point": "75 to 76.5"}, {"smiles": "Nc1ccc2ccc(-c3ccccc3Cl)nc2n1", "melting point": 193}, {"smiles": "COc1ccc(C=Nc2c3c(nc4ccccc24)CCCC3)cc1", "melting point": "160 to 162"}, {"smiles": "CCC(CC)N1CC2=C3C(=NN(c4ccc(C(C)C)cc4Br)C(=O)N3CC2)C(C)=N1", "melting point": "149 to 150"}, {"smiles": "CCN1C(=O)C(N(CC(F)(F)C(F)(F)F)C(=O)C(C)C(N)=O)COc2ccccc21", "note": "(centres undefined)", "melting point": 152}, {"smiles": "CCc1noc(C)c1-c1[nH]c2ccccc2c1CCCN(C)C", "melting point": "131 to 133"}, {"smiles": "CCOP(=O)(Cc1ccc(C(=O)N(Cc2ccccc2)c2ccc(Cl)cc2)cc1)OCC", "melting point": "81 to 82"}, {"smiles": "CC(C)c1ccc(-n2nc(C(F)(F)F)cc2-c2ccc(S(C)(=O)=O)cc2)cc1", "melting point": "144 to 146"}, {"smiles": "O=C(NC(=O)c1c(Cl)cccc1Cl)Nc1ccc(C(F)(F)F)cn1", "melting point": "228 to 230"}, {"smiles": "CSC(=S)NCCNC(C)=O", "melting point": "139 to 140"}, {"smiles": "CCc1ccc(NC(=O)N[C@H]2C[C@H](C(=O)O)Nc3cc(Cl)cc(Cl)c32)cc1", "note": "(relative stereo)", "melting point": "195 to 197"}, {"smiles": "CS(=O)(=O)N1CCC(=C2c3ccccc3CCc3cccnc32)CC1", "melting point": "223 to 224"}, {"smiles": "CN1Cc2c(C#N)ncn2-c2ccsc2C1=O", "melting point": "206 to 208"}, {"smiles": "Cc1c(C)c2c(c(C)c1NC(=O)CC(C)(C)C)C(N1CCCCC1)C(C)(C)O2", "note": "(centres undefined)", "melting point": "229 to 230"}, {"smiles": "Nc1nc(-c2ccccc2)c2ncn(C3OC(CO)C(O)C3O)c2n1", "note": "(centres undefined)", "melting point": "187 to 190"}, {"smiles": "N#Cc1cc(-c2ccccc2)cnc1Cl", "melting point": "149 to 150"}, {"smiles": "CC(=O)OCc1c(S(C)(=O)=O)ccc(C(=O)O)c1Cl", "melting point": "219 to 223"}, {"smiles": "COc1ncccc1-c1cccn2nc(Nc3ccc(C4CCN(C(=O)OC(C)(C)C)CC4)cc3)nc12", "melting point": "101 to 103"}, {"smiles": "O=C1Cc2cc(NC(=O)C(=O)N3CCC(Oc4ccc(Cl)cc4)CC3)ccc2N1", "melting point": "194 to 196"}, {"smiles": "COC(=O)C(=CNc1ccsc1C(=O)O)SC", "melting point": "179 to 180"}, {"smiles": "Cc1cc2nc(Cl)c(Cl)nc2c(N)c1C", "melting point": "178 to 180"}, {"smiles": "CCc1c(N)c(C(N)=O)nn1C1CN(C(C)C)C1", "melting point": "195 to 200"}, {"smiles": "CC(O)(C(=O)O)c1cccc(OCc2ccc3ccccc3c2)c1", "note": "(single isomer, unassigned; (-))", "melting point": "104 to 106"}, {"smiles": "COC(=O)CCCc1cc2cc(Cl)ccc2n1S(=O)(=O)c1ccc2nc(N)oc2c1", "melting point": 238}, {"smiles": "Cc1ccc(C)c(OCc2ccccc2C(C#N)=NOC(F)F)c1", "melting point": "104 to 108"}, {"smiles": "C=CC(=O)Nc1ccc2ncnc(Nc3ccc(OCc4ccccc4)cc3)c2c1", "melting point": "227 to 229"}, {"smiles": "CC(C)n1nc(-c2sc(C(=O)NC3CC3)nc2-c2ccc(F)cc2)ccc1=O", "melting point": "157 to 158"}, {"smiles": "Nc1nccn2nc(SCc3ccccc3)nc12", "melting point": "144 to 145"}, {"smiles": "Cn1c(CC(=O)O)ccc1C(=O)c1ccc(N)cc1", "melting point": "173 to 175"}, {"smiles": "Cc1cc(-n2nnc(-c3ccccc3)n2)sc1C(=O)NCc1ccccc1", "melting point": "155 to 158"}, {"smiles": "CCC(O)(CC)c1cccc(COc2ccc3c(-c4ccoc4)cc(C#N)cc3c2)n1", "melting point": "115 to 116"}]}]}
